Assay results: paper PMC9959349, “Discovery of the 3-Amino-1,2,4-triazine-Based Library as Selective PDK1 Inhibitors with Therapeutic Potential in Highly Aggressive Pancreatic Ductal Adenocarcinoma” (International Journal of Molecular Sciences, 2023)

Assays:
[1] = test system: S232 PDH E1 alpha protein (PDHA1) phosphorylation in PSN-1 cells; experiment: Cellular PDH phosphorylation (ELISA); assay type: cell-based, human; conditions: 24 h, IC50 concentrations
Description: As a first step, the ability of representative derivatives to target PDK in intact cancer cells was assessed by evaluating their effect on PDH phosphorylation of PSN-1 cancer cells.
PSN-1 cells (2 × 10^5) were seeded in a six-well plate in growth medium (4 mL). After 24 h, cells were incubated for 24 h with IC50 concentrations of tested compounds. Subsequently, the phosphorylation level of S232 PDH E1 alpha protein (PDHA1) was assessed by ELISA Kit (Abcam) following the manufacturer’s instructions. The amount of phosphorylated S232 PDHA1 protein was detected by measuring the absorbance of each well at 600 nm, using a Bio-Rad 680 microplate reader.

[2] = test system: S232 PDH E1 alpha protein (PDHA1) phosphorylation in LLC tissue; experiment: PDH phosphorylation in mice tumor tissues (ELISA); assay type: in vivo, C57BL mice; conditions: LLC-bearing mice, 5i 20 mg kg−1 daily i.p., tumors collected day 15
Description: As a proof-of-concept of PDK inhibitory activity of the newly developed 3-amino 1,2,4-triazines, we also assessed the phosphorylation level of S232-PDHA1 in tumor samples of animals treated with 5i. Tumors of treated animals collected on day 15 were homogenized and phopho-S232-PDHA1 levels were quantified by an ELISA Kit.
The phosphorylation level of S232 PDH E1 alpha protein (PDHA1) in LLC tissue homogenates was assessed by ELISA Kit (Abcam) following the manufacturer’s instructions. The amount of phosphorylated S232 PDHA1 protein was detected by measuring the absorbance of each well at 600 nm, using a Bio-Rad 680 microplate reader.

PSN-1 cells [3] = experiment: Cell death induction, Hoechst 33258 staining; assay type: cell-based, human; conditions: 48 h, IC50 doses
Description: As a last mechanistic evaluation, the ability of selected compounds 5i and 6h to induce cancer cell death by means of apoptosis, was also assessed.
PSN-1 cells were seeded into 8-well tissue-culture slides (BD Falcon, Bedford, MA, USA) at 5 × 10^4 cells/well (0.8 cm^2). […] Samples were examined at 5× and 40× magnification in a Zeiss LSM 800 confocal microscope using the Zeiss ZEN 2.3 software system (Zeiss, Oberkochen, Germany).

PSN-1 cells [4] = experiment: 3D spheroid cytotoxicity, acid phosphatase (APH) assay, PSN-1; conditions: read-out: IC50 ±S.D. PSN-1 (3D cytotoxicity); spheroids, 72 h, APH test
Description: (§2) The PDAC cancer spheroids were treated with tested compounds for 72 h, and cell viability was assessed by means of the acid phosphatase (APH) assay (Table 3).
(§3) An APH-modified assay was used for determining cell viability in 3D spheroids, as previously described [61]. Briefly, the pre-seeded spheroids were treated with fresh medium containing the compound to be studied at the appropriate concentration (range 2.5–200 μM). Triplicate cultures were established for each treatment. After 72 h, each well was treated with 100 μL of the assay buffer (0.1 M sodium acetate, 0.1% Triton-X-100, supplemented with ImmunoPure p-nitrophenyl phosphate; Sigma Chemical Co., Ltd.) and, following 3 h of incubation, 10 μL of 1 M NaOH solution was added. […] The mean absorbance for each drug dose was expressed as a percentage of the control untreated well absorbance (T/C) and plotted vs. drug concentration. […] The evaluation was based on means from at least four independent experiments.

PSN-1 cells [5] = experiment: ROS production (CM-H2DCFDA); assay type: cell-based, human; conditions: 5 µM test compounds, antimycin 3 µM as positive control
Description: Consistently, tested compounds, although to different extents, were effective in reducing total cellular sulfhydryl contents in PSN-1-treated cells (Figure 9B).
The production of ROS was measured in PSN-1 cells (10^4 per well) grown for 24 h in a 96-well plate in RPMI medium without phenol red (Sigma Aldrich, Germany). Cells were then washed with PBS and loaded with 10 μM 5-(and-6)-chloromethyl-2′,7′-dichlorodihydrofluorescein diacetate acetylester (CM–H2DCFDA) (Molecular Probes-Invitrogen, Eugene, OR, USA) for 45 min, in the dark. Afterward, cells were washed with PBS and incubated with tested compounds. Fluorescence increase was estimated utilizing the wavelengths of 485 nm (excitation) and 527 nm (emission) in a VICTOR X3 (PerkinElmer, USA) plate reader. Antimycin (3 μM, Sigma Aldrich), a potent inhibitor of Complex III in the electron transport chain, was used as the positive control.

PSN-1 cells [6] = experiment: Cellular lactate production; assay type: cell-based, human; conditions: IC50 concentrations
Description: (§1) Cells were treated with DAP or representative compounds at IC50 concentrations and the changes in OCR and in the intracellular lactate formation were monitored.
PSN-1 cells (2 × 10^5) were seeded in a six-well plate in a growth medium (4 mL). After 24 h, cells were incubated for 60 min with IC50 concentrations of tested compounds. Changes in lactate production were assessed via colorimetric microplate assay (Lactate assay kit®, Merk, St. Louis, MO, USA) according to the manufacturer’s instructions. The intracellular lactate concentration was detected by measuring the absorbance of each well at 570 nm, using a Bio-Rad 680 microplate reader.

[7] = test system: murine Lewis Lung Carcinoma (LLC); experiment: In vivo anticancer activity, LLC solid tumor model; conditions: LLC-bearing C57BL mice, daily dosing days 7-14, evaluated day 15; 5i 20 mg kg−1 i.p., gemcitabine 60 mg kg−1, cisplatin 3 mg kg−1
Description: Seven days after tumor inoculation the tumor-bearing mice were randomized into vehicle control and treatment groups.
The LLC was implanted intramuscularly (i.m.) as a 2 × 10^6 cell inoculum into the right hind leg of 8-week-old male and female C57BL mice (24 ± 3 g body weight). After 7 days from tumor implantation (visible tumors), mice were randomly divided into 4 groups (8 animals per group) and subjected to daily i.p. administration. […] At day 15, animals were sacrificed, the legs were amputated at the proximal end of the femur, and the inhibition of tumor growth was determined from the difference in the weights of the tumor-bearing leg and the healthy leg of the animals, expressed as a percentage referenced to the control animals. Body weight was measured at day 0 and from day 7 onwards every 2 days and was taken as a parameter for systemic toxicity. All presented values are the means ± SD of no less than three measurements.

PSN-1 cells [8] = experiment: Cellular oxygen consumption (Mito-ID Extracellular O2 Sensor Kit); assay type: cell-based, human; conditions: IC50 concentrations
Description: as §1
PSN-1 cells (2 × 10^5) were seeded in a six-well plate in growth medium (4 mL). After 24 h, cells were incubated for 60 min with IC50 concentrations of tested compounds. Subsequently, oxygen consumption was assessed by Mito-ID® Extracellular O2 Sensor Kit according to manufacturer’s instructions. Fluorescence was measured using a Tecan microplate reader (Ex 340–400 nm, Em 630–680 nm).

BxPC-3 cells = experiment: 3D spheroid cytotoxicity, acid phosphatase (APH) assay, BxPC-3; conditions: read-out: IC50 ±S.D. BxPC-3 (3D cytotoxicity); spheroids, 72 h, APH test
Description: as §2, §3

PSN-1 cells [9] = experiment: Mitochondrial membrane potential (Mito-ID kit); assay type: cell-based, human; conditions: IC50 concentrations
Description: The ΔΨ was assayed using the Mito-ID® Membrane Potential Kit according to the manufacturer’s instructions (Enzo Life Sciences, Farmingdale, NY, USA) as previously described. Briefly, PSN-1 cells (8 × 10^3 per well) were seeded in 96-well plates; after 24 h, cells were washed with PBS and loaded with Mito-ID Detection Reagent for 30 min at 37 °C in the dark. Afterward, cells were incubated with tested compounds for 60 min. CCCP (Carbonyl cyanide 3-chlorophenyl-hydrazone) was used as the positive control. Fluorescence intensity was estimated using a VICTOR X3 (PerkinElmer, Waltham, MA, USA) plate reader at 490 (excitation) and 590 nm (emission).

SMILES: Cn1cc(-c2nnc(N)nc2-c2cn(C)c3ccc(F)cc23)c2ccccc21 [5i]
- reduction in phospho-PDHA1 (S232) levels [1]: very similar to that exerted by the reference PDK inhibitor DAP
- phospho-S232-PDHA1 level in tumor samples [2]: dramatically reduced PDH phosphorylation
- apoptosis induction (nuclear morphology) (PSN-1 cells [3]): brightly stained nuclei and morphological features typical of cells undergoing apoptosis
- IC50 (PSN-1 cells [4]): 4.9 ± 0.8 µM
- ROS basal level production / hydrogen peroxide formation (PSN-1 cells [5]): even higher than that provoked by antimycin
- lactate production (PSN-1 cells [6]): more potent than DAP
- reduction in tumor growth compared to the control group [7]: about 80%
- cellular oxygen consumption (OCR) (PSN-1 cells [8]): more effective than DAP
- IC50 (BxPC-3 cells): 34.1 ± 1.5 µM
- percentage of cells with hypopolarized mitochondrial membrane potential (in words) (PSN-1 cells [9]): significantly increased
